Assay results: PMC12638379, “An innovative approach to development of new pyrazolylquinolin-2-one hybrids as dual EGFR and BRAF^V600E inhibitors” (Molecular Diversity, 2025)
Read-outs that look alike come from different tables or passages of the source.

Tested on: NCI 60 cancer cell lines
Test: NCI anticancer screening over a panel of 60 cancer cells, single concentration 10 µM
Format: cell-based, human
Conditions: Homo sapiens, read-out: % Growth Inhibition (GI %)
Procedure, shortened: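 Primary single-dose screen at 10 µM over the NCI panel of 60 human tumour cell lines (leukemia, CNS, lung, colon, kidney, ovary, breast, prostate). The standard NCI Developmental Therapeutics Program protocol was used.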

[1] = A549, Non-small cell lung cancer A549/ATCC, 10 μM
[2] = BT-549, Breast cancer BT-549, 10 μM
[3] = CAKI-1, Renal cancer CAKI-1, 10 μM
[4] = CCRF-CEM, Leukemia CCRF-CEM, 10 μM
[5] = COLO 205, Colon cancer COLO 205, 10 μM
[6] = DU-145, Prostate cancer DU-145, 10 μM
[7] = HCC 2998, Colon cancer HCC-2998, 10 μM
[8] = HCT-15, Colon cancer HCT-15, 10 μM
[9] = HCT-116, Colon cancer HCT-116, 10 μM
[10] = HOP-62, Non-small cell lung cancer HOP-62, 10 μM
[11] = HOP-92, Non-small cell lung cancer HOP-92, 10 μM
[12] = HT-29, Colon cancer HT29, 10 μM
[13] = Hs-578T, Breast cancer HS 578T, 10 μM
[14] = IGROV-1, Ovarian cancer IGROV1, 10 μM
[15] = LOX IMVI, Melanoma LOX IMVI, 10 μM
[16] = MCF7, Breast cancer MCF7, 10 μM
[17] = MDA-MB-231, Breast cancer MDA-MB-231/ATCC, 10 μM
[18] = MDA-MB-435, Melanoma MDA-MB-435, 10 μM
[19] = MDA-MB-468, Breast cancer MDA-MB-468, 10 μM
[20] = NCI-H23, Non-small cell lung cancer NCI-H23, 10 μM
[21] = NCI-H226, Non-small cell lung cancer NCI-H226, 10 μM
[22] = NCI-H322M, Non-small cell lung cancer NCI-H322M, 10 μM
[23] = NCI-H460, Non-small cell lung cancer NCI-H460, 10 μM
[24] = NCI-H522, Non-small cell lung cancer NCI-H522, 10 μM
[25] = NCI/ADR-RES, Ovarian cancer NCI/ADR-RES, 10 μM
[26] = OVCAR-4, Ovarian cancer OVCAR-4, 10 μM
[27] = OVCAR-5, Ovarian cancer OVCAR-5, 10 μM
[28] = RPMI-8226, Leukemia RPMI-8226, 10 μM
[29] = RXF 393, Renal cancer RXF 393, 10 μM
[30] = SF-268, CNS Cancer SF-268, 10 μM
[31] = SF-295, CNS Cancer SF-295, 10 μM
[32] = SF-539, CNS Cancer SF-539, 10 μM
[33] = SK-MEL-2, Melanoma SK-MEL-2, 10 μM
[34] = SK-MEL-5, Melanoma SK-MEL-5, 10 μM
[35] = SK-MEL-28, Melanoma SK-MEL-28, 10 μM
[36] = SK-OV-3, Ovarian cancer SK-OV-3, 10 μM
[37] = SN12C, Renal cancer SN12C, 10 μM
[38] = SNB-19, CNS Cancer SNB-19, 10 μM
[39] = SNB-75, CNS Cancer SNB-75, 10 μM
[40] = SW-620, Colon cancer SW-620, 10 μM
[41] = T47D, Breast cancer T-47D, 10 μM
[42] = TK-10, Renal cancer TK-10, 10 μM
[43] = UACC-62, Melanoma UACC-62, 10 μM
[44] = UACC-257, Melanoma UACC-257, 10 μM
[45] = UO-31, Renal cancer UO-31, 10 μM

C/C(=N\Nc1ccc(S(N)(=O)=O)cc1)c1cnn(-c2cc(=O)[nH]c3ccccc23)c1C [Compound 4a, (E)-4-(2-(1-(5-methyl-1-(2-oxo-1,2-dihydroquinolin-4-yl)-1H-pyrazol-4-yl)ethylidene) hydrazineyl)benzenesulfonamide]
inhibition at 10 µM (786-0, Renal cancer 786-0, 10 μM): 11.6% | inhibition at 10 µM [1]: < 5% | inhibition at 10 µM (ACHN, Renal cancer ACHN, 10 μM): < 5% | inhibition at 10 µM [2]: 34.3% | inhibition at 10 µM [3]: 5.51% | inhibition at 10 µM [4]: 7.82% | inhibition at 10 µM [5]: < 5% | inhibition at 10 µM [6]: < 5% | inhibition at 10 µM [7]: < 5% | inhibition at 10 µM [8]: < 5% | inhibition at 10 µM [9]: < 5% | inhibition at 10 µM (HL-60, Leukemia HL-60(TB), 10 μM): < 5% | inhibition at 10 µM [10]: 7.49% | inhibition at 10 µM [11]: < 5% | inhibition at 10 µM [12]: < 5% | inhibition at 10 µM [13]: 19.4% | inhibition at 10 µM [14]: < 5% | inhibition at 10 µM (K562, Leukemia K-562, 10 μM): < 5% | inhibition at 10 µM (KM12, Colon cancer KM12, 10 μM): < 5% | inhibition at 10 µM [15]: 5.22% | inhibition at 10 µM (Leukemia SR, 10 μM): 12.7% | inhibition at 10 µM [16]: 13.9% | inhibition at 10 µM [17]: 17.7% | inhibition at 10 µM [18]: < 5% | inhibition at 10 µM [19]: 24.8% | inhibition at 10 µM (MOLT-4, Leukemia MOLT-4, 10 μM): < 5% | inhibition at 10 µM (Melanoma MALM-3M, 10 μM): 30.1% | inhibition at 10 µM [20]: < 5% | inhibition at 10 µM [21]: 14.7% | inhibition at 10 µM [22]: 6.78% | inhibition at 10 µM [23]: < 5% | inhibition at 10 µM [24]: 18.9% | inhibition at 10 µM [25]: < 5% | inhibition at 10 µM [26]: 11.4% | inhibition at 10 µM [27]: < 5% | inhibition at 10 µM (OVCAR-8, Ovarian cancer OVCAR-8, 10 μM): < 5% | inhibition at 10 µM (Prostate cancer PC-3, 10 μM): 8.46% | inhibition at 10 µM [28]: 11.2% | inhibition at 10 µM [29]: < 5% | inhibition at 10 µM [30]: 14% | inhibition at 10 µM [31]: 5.93% | inhibition at 10 µM [32]: 8.96% | inhibition at 10 µM [33]: 12% | inhibition at 10 µM [34]: 8.23% | inhibition at 10 µM [35]: 6.43% | inhibition at 10 µM [36]: < 5% | inhibition at 10 µM [37]: < 5% | inhibition at 10 µM [38]: 9.13% | inhibition at 10 µM [39]: 10.1% | inhibition at 10 µM [40]: < 5% | inhibition at 10 µM [41]: 24.7% | inhibition at 10 µM [42]: < 5% | inhibition at 10 µM (U-251, CNS Cancer U251, 10 μM): 7.57% | inhibition at 10 µM [43]: 8.54% | inhibition at 10 µM [44]: < 5% | inhibition at 10 µM [45]: 22.6%

C/C(=N\Nc1ccc(S(N)(=O)=O)cc1)c1cnn(-c2cc(=O)[nH]c3ccc(C)cc23)c1C [Compound 4b, (E)-4-(2-(1-(5-methyl-1-(6-methyl-2-oxo-1,2-dihydroquinolin-4-yl)-1H-pyrazol-4-yl)ethylidene)hydrazineyl)benzenesulfonamide]
inhibition at 10 µM (A498, Renal cancer A498, 10 μM): 5.79% | inhibition at 10 µM [1]: < 5% | inhibition at 10 µM (ACHN, Renal cancer ACHN, 10 μM): < 5% | inhibition at 10 µM [2]: < 5% | inhibition at 10 µM [3]: 5.35% | inhibition at 10 µM [4]: 16% | inhibition at 10 µM [5]: < 5% | inhibition at 10 µM [6]: < 5% | inhibition at 10 µM (EKVX, Non-small cell lung cancer EKVX, 10 μM): < 5% | inhibition at 10 µM [7]: < 5% | inhibition at 10 µM [8]: < 5% | inhibition at 10 µM [9]: < 5% | inhibition at 10 µM [10]: 9.34% | inhibition at 10 µM [11]: < 5% | inhibition at 10 µM [12]: < 5% | inhibition at 10 µM [13]: 14.4% | inhibition at 10 µM [14]: < 5% | inhibition at 10 µM (K562, Leukemia K-562, 10 μM): 9.72% | inhibition at 10 µM [15]: 13% | inhibition at 10 µM (Leukemia SR, 10 μM): 40.3% | inhibition at 10 µM [16]: 16.1% | inhibition at 10 µM [17]: 18.8% | inhibition at 10 µM [18]: 8.01% | inhibition at 10 µM [19]: 41.7% | inhibition at 10 µM (MOLT-4, Leukemia MOLT-4, 10 μM): 16.1% | inhibition at 10 µM (Melanoma M14, 10 μM): < 5% | inhibition at 10 µM (Melanoma MALM-3M, 10 μM): 16.4% | inhibition at 10 µM [20]: < 5% | inhibition at 10 µM [21]: 15.9% | inhibition at 10 µM [22]: < 5% | inhibition at 10 µM [23]: < 5% | inhibition at 10 µM [24]: 27.9% | inhibition at 10 µM [25]: < 5% | inhibition at 10 µM [26]: 11.4% | inhibition at 10 µM [27]: < 5% | inhibition at 10 µM (Prostate cancer PC-3, 10 μM): 9.56% | inhibition at 10 µM [28]: < 5% | inhibition at 10 µM [29]: 9.76% | inhibition at 10 µM [30]: 13.3% | inhibition at 10 µM [31]: 11.1% | inhibition at 10 µM [32]: 16.9% | inhibition at 10 µM [33]: 7.35% | inhibition at 10 µM [34]: 9.87% | inhibition at 10 µM [35]: < 5% | inhibition at 10 µM [36]: < 5% | inhibition at 10 µM [37]: 5.72% | inhibition at 10 µM [38]: 12.6% | inhibition at 10 µM [39]: 12.2% | inhibition at 10 µM [40]: < 5% | inhibition at 10 µM [41]: 27.3% | inhibition at 10 µM [42]: < 5% | inhibition at 10 µM (U-251, CNS Cancer U251, 10 μM): 13% | inhibition at 10 µM [43]: 19.2% | inhibition at 10 µM [44]: < 5% | inhibition at 10 µM [45]: 11.7%
